Test results: patent publication US6919378B2, “Pharmaceutical solutions of modafinil compounds” (Cephalon, Inc., priority 2000, dated 2005)
In brackets after ≈: the same amount, converted by molar mass.

What was measured:
[1] = Water and lipid solubility (observation)
monkeys = conditions: single administration; cited from earlier work
[2] = Solubility of modafinil in solvent composition, measured by HPLC; format: physicochemical; conditions: PEG-400:benzyl alcohol 95:5 (v/v) solvent mixture, organic solvent or mixture, thermodynamic from solid, in 95:5 (v/v) PEG-400:benzyl alcohol, cooled to room temperature, filtered
Description: The following HPLC method may be used to measure the modafinil compound content in the compositions. Filter a solution saturated with a modafinil compound through a 1.2 μm syringe filter. Dilute 10 μL of the clear solution to 1 mL with 990 μL of dimethylsulfoxide (Fischer Certified ACS grade). Take 10 μL of the diluted solution for the HPLC analysis, with the following representative column conditions: • Flow rate: 1.2 mL/min. • Column: ODS, 4.6×20 mm, Column Temp: 30° C. • Mobil phase: 80% (65% Acetonitrile/35% 1M phosphate buffer) • 20% water • Analysis time: 5 minutes • Wavelength: 222 nanometers
Concentration can be calculated by comparison to area from a modafinil compound standard used at 0.4 mg/mL with appropriate dilution.
A mixture of 95 mL of PEG-400 and 5 ml of benzyl alcohol was stirred at room temperature until homogeneous. To a separate container, 0.1 gram of modafinil was weighed and 1 mL of the mixed solvent was added with stirring and heating to 55-60° C. The solution was allowed to cool to room temperature and any undissolved solid was removed by filtering the solution. In the case of a viscous solution or a solution that solidifies at room temperature, warming until a freely flowing solution was obtained and then filtration gave a solution free of particulate matter.

mice = conditions: single administration; cited from earlier work

For `NC(=O)C[S+]([O-])C(c1ccccc1)c1ccccc1` (centres unmarked) [modafinil, 2-(benzhydryl-sulfinyl)acetamide], the lipid solubility [1] is given as “very poor”, the water solubility [1] is given as “very poor” and the nocturnal activity (monkeys) is given as “increased nocturnal activity”. For the same compound, the solubility [2] was 61 mg/mL (≈ 223 mM) and the locomotor activity (mice) was “increased locomotor activity”.
